Reference: patent US20100267561A1, “HERBICIDAL PYRIDAZINONE DERIVATIVES” (priority 2007, published 2010)
Where two headings read alike, the source gives them in different places.

Experiments:
Assay type in all cases: in vivo
[1] = test system: catchweed bedstraw (Galium aparine); experiment: Test B pre-/postemergence plant response; settings: Preemergence
Procedure, shortened: (§1)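 Preemergence and postemergence (plants 2-18 cm, 1- to 4-leaf stage) applications used test chemicals in a non-phytotoxic solvent with surfactant. Plants were held in a greenhouse 13 to 15 days, then rated visually against controls on a 0-100 scale (0 no effect, 100 complete control).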

[2] = test system: common ragweed (Ambrosia elation); experiment: Test B pre-/postemergence plant response; settings: for pest or weed control at 31 g/ha / pest or weed control at 62 g/ha: Ambrosia, read-out: Plant response rating, Ragweed; for pest or weed control at 31 g/ha: 31 g ai/ha; for pest or weed control at 62 g/ha: 62 g ai/ha, 100 complete control
Procedure, shortened: as §1

wild oat (Avena fatua) = experiment: Test B pre-/postemergence plant response; settings: for pest or weed control at 31 g/ha / pest or weed control at 62 g/ha: Avena fatua, read-out: Plant response rating, Oat, Wild; for pest or weed control at 31 g/ha: 31 g ai/ha; for pest or weed control at 62 g/ha: 62 g ai/ha, 100 complete control
Procedure, shortened: as §1

[3] = test system: giant foxtail (Setaria faberii); experiment: Test B pre-/postemergence plant response; settings: for pest or weed control at 31 g/ha: 31 g ai/ha; for pest or weed control at 62 g/ha: 62 g ai/ha, 100 complete control
Procedure, shortened: as §1

[4] = test system: yellow nutsedge (Cyperus esculentus); experiment: Test B pre-/postemergence plant response; settings: for pest or weed control at 31 g/ha / pest or weed control at 62 g/ha: Cyperus, read-out: Plant response rating, Nutsedge, Yellow; for pest or weed control at 31 g/ha: 31 g ai/ha; for pest or weed control at 62 g/ha: 62 g ai/ha, 100 complete control
Procedure, shortened: as §1

[5] = test system: goosegrass (Eleusine indica); experiment: Test B pre-/postemergence plant response; settings: for pest or weed control at 31 g/ha / pest or weed control at 62 g/ha: Eleusine indica, read-out: Plant response rating, Goosegrass; for pest or weed control at 31 g/ha: 31 g ai/ha; for pest or weed control at 62 g/ha: 62 g ai/ha, 100 complete control
Procedure, shortened: as §1

[6] = test system: windgrass (Apera spica-venti); experiment: Test B postemergence plant response; settings: for Windgrass plant response rating: postemergence, 0-100 scale; for Plant response rating, Windgrass: Postemergence
Procedure, shortened: (§2)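 Postemergence greenhouse test; plants at 2 to 18 cm (1- to 4-leaf stage) given formulated test chemical, held 13 to 15 days, then visually rated against untreated controls on a 0 (no effect) to 100 (complete control) scale; dash means no result.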

[7] = test system: winter barley (Hordeum vulgare); experiment: Test B postemergence plant response; settings: for Plant response rating, Barley: Postemergence, scale 0 to 100, 0 no effect, 100 complete control
Procedure, shortened: as §2

[8] = 8 g ai/ha, postemergence, 0-100 scale
[9] = 16 g ai/ha, postemergence, 0-100 scale
[10] = post-emergence, Postemergence, scale 0 to 100
[11] = post-emergence, Postemergence, scale 0 to 100, 0 no effect
[12] = pre-emergence, Preemergence, scale 0 to 100 (0 no effect, 100 complete control)
[13] = pre-emergence, Preemergence, 0 to 100 scale, 0 no effect
[14] = Preemergence, 8 g ai/ha, scale 0 to 100 (0 no effect, 100 complete control)
[15] = Preemergence, 16 g ai/ha, scale 0 to 100

Q: How did the pest or weed control at 31 g/ha ([1]; Galium aparine, pre-emergence, 31 g ai/ha, scale 0 to 100 (0 no effect, 100 complete control), read-out: Plant response rating, Galium) turn out when `Cc1cc(-c2ccc(Br)cc2)nn1-c1c(OC(=O)C2CC2)cnn(C(=O)C2CC2)c1=O` [Compound 80, 5-[3-(4-bromophenyl)-5-methyl-1H-pyrazol-1-yl]-1-(cyclopropylcarbonyl)-1,6-dihydro-6-oxo-4-pyridazinyl cyclopropanecarboxylate] was run?
A: 0%

Q: And the pest or weed control at 62 g/ha ([1]; Galium aparine, pre-emergence, 62 g ai/ha, 0 to 100 scale, 0 no effect, 100 complete control, read-out: Plant response rating, Galium)?
A: 0%

Q: And the “Galium plant response rating” value ([1]; 8 g ai/ha, scale 0 to 100 (0 no effect, 100 complete control))?
A: 0

Q: And the “Galium plant response rating” value ([1]; 16 g ai/ha, scale 0 to 100)?
A: 0

Q: And the “Ragweed plant response rating” value [2, 8]?
A: 0

Q: What about the “Ragweed plant response rating” value [2, 9] of the same molecule?
A: 0

Q: And the pest or weed control at 31 g/ha [2, 10]?
A: 0%

Q: What about the pest or weed control at 62 g/ha [2, 11] of the same molecule?
A: 0%

Q: What about the pest or weed control at 31 g/ha [2, 12] of the same molecule?
A: 0%

Q: What about the pest or weed control at 62 g/ha [2, 13] of the same molecule?
A: 0%

Q: What about the “Ragweed plant response rating” value [2, 14] of the same molecule?
A: 0

Q: What about the “Ragweed plant response rating” value [2, 15] of the same molecule?
A: 0

Q: And the “Oat, Wild plant response rating” value (wild oat (Avena fatua); [8])?
A: 85

Q: What about the “Oat, Wild plant response rating” value (wild oat (Avena fatua); [9]) of the same molecule?
A: 100

Q: And the pest or weed control at 31 g/ha (wild oat (Avena fatua); [10])?
A: 100%

Q: What about the pest or weed control at 62 g/ha (wild oat (Avena fatua); [11]) of the same molecule?
A: 100%

Q: What about the pest or weed control at 31 g/ha (wild oat (Avena fatua); [12]) of the same molecule?
A: 60%

Q: And the pest or weed control at 62 g/ha (wild oat (Avena fatua); [13])?
A: 70%

Q: What about the “Oat, Wild plant response rating” value (wild oat (Avena fatua); [14]) of the same molecule?
A: 30

Q: What about the “Oat, Wild plant response rating” value (wild oat (Avena fatua); [15]) of the same molecule?
A: 40

Q: And the “Foxtail, Giant plant response rating” value [3, 8]?
A: 95

Q: And the “Foxtail, Giant plant response rating” value [3, 14]?
A: 0

Q: And the “Foxtail, Giant plant response rating” value [3, 15]?
A: 100

Q: What about the pest or weed control at 16 g/ha ([3]; Setaria faberi, post-emergence, Postemergence, 16 g ai/ha, scale 0 to 100, read-out: Plant response rating, Foxtail, Giant) of the same molecule?
A: 100%

Q: What about the pest or weed control at 31 g/ha ([3]; Setaria faberi, post-emergence, Postemergence, scale 0 to 100, read-out: Plant response rating, Foxtail, Giant) of the same molecule?
A: 100%

Q: What about the pest or weed control at 62 g/ha ([3]; Setaria faberi, post-emergence, Postemergence, scale 0 to 100, 0 no effect, read-out: Plant response rating, Foxtail, Giant) of the same molecule?
A: 100%

Q: And the pest or weed control at 31 g/ha ([3]; Setaria faberi, pre-emergence, Preemergence, scale 0 to 100 (0 no effect, 100 complete control), read-out: Plant response rating, Foxtail, Giant)?
A: 100%

Q: And the pest or weed control at 62 g/ha ([3]; Setaria faberi, pre-emergence, Preemergence, 0 to 100 scale, 0 no effect, read-out: Plant response rating, Foxtail, Giant)?
A: 100%

Q: And the “Nutsedge, Yellow plant response rating” value [4, 8]?
A: 0

Q: What about the “Nutsedge, Yellow plant response rating” value [4, 9] of the same molecule?
A: 0

Q: And the pest or weed control at 31 g/ha [4, 10]?
A: 0%

Q: What about the pest or weed control at 62 g/ha [4, 11] of the same molecule?
A: 0%

Q: And the pest or weed control at 31 g/ha [4, 12]?
A: 0%

Q: What about the pest or weed control at 62 g/ha [4, 13] of the same molecule?
A: 100%

Q: What about the “Nutsedge, Yellow plant response rating” value [4, 14] of the same molecule?
A: 0

Q: And the “Nutsedge, Yellow plant response rating” value [4, 15]?
A: 0

Q: And the “Goosegrass plant response rating” value [5, 8]?
A: 20

Q: What about the “Goosegrass plant response rating” value [5, 9] of the same molecule?
A: 75

Q: And the pest or weed control at 31 g/ha [5, 10]?
A: 85%

Q: And the pest or weed control at 62 g/ha [5, 11]?
A: 98%

Q: What about the pest or weed control at 31 g/ha [5, 12] of the same molecule?
A: 100%

Q: What about the pest or weed control at 62 g/ha [5, 13] of the same molecule?
A: 100%

Q: And the “Goosegrass plant response rating” value [5, 14]?
A: 0

Q: What about the “Goosegrass plant response rating” value [5, 15] of the same molecule?
A: 20

Q: And the “Windgrass plant response rating” value ([6]; 8 g ai/ha)?
A: 30

Q: What about the “Windgrass plant response rating” value ([6]; 16 g ai/ha) of the same molecule?
A: 40

Q: What about the “Plant response rating, Windgrass” value ([6]; 31 g ai/ha, scale 0 to 100) of the same molecule?
A: 60

Q: And the “Plant response rating, Windgrass” value ([6]; 62 g ai/ha, scale 0 to 100, 0 no effect, 100 complete control)?
A: 70

Q: What about the “Barley plant response rating” value [7, 8] of the same molecule?
A: 30

Q: And the “Plant response rating, Barley” value ([7]; 16 g ai/ha)?
A: 60

Q: What about the “Plant response rating, Barley” value ([7]; 31 g ai/ha) of the same molecule?
A: 95

Q: What about the “Plant response rating, Barley” value ([7]; 62 g ai/ha) of the same molecule?
A: 98
